Measurements reported in patent US20170290774A1, “NEUROKININ-1 RECEPTOR ANTAGONIST COMPOSITION FOR TREATMENT OF DISEASES AND CONDITIONS OF THE RESPIRATORY TRACT” (PLUS VITECH, S.L., priority 2014, published 2017).

Experiment: Tissue concentration of aprepitant by HPLC after oral or inhaled administration to rabbits
Format: in vivo, New Zealand albino rabbits
Settings: rabbit
Protocol: Herein, New Zealand albino rabbits (New Zealand White Rabbits) with an initial average weight of approximately 3 kg were used. The rabbits were fed ad libitum and were monitored daily to check that signs of toxicity had not appeared. […] This mixture was administered as an aerosol to the airways of a group of 3 of said rabbits (Group 5) in a dose of 0.05 mg/kg body weight per day, to another group of three rabbits (Group 6) in a dose of 0.1 mg/kg body weight per day, to another group of three rabbits (group 7) in a dose of 0.2 mg/kg body weight per day and to another group of three rabbits (Group 8) in a dose of 0.4 mg/kg body weight per day. […] After seven days of treatment all animals were euthanized and necropsied. […] Samples were taken at the peripheral level of the lung parenchyma, just below the pleural surface. Tissue samples were also taken from the nasal cavity, pharynx, larynx and bronchi. […] The average is the arithmetic average calculated for each row or column of each table. The SD is the standard deviation, calculated for each row or column of each table.

C[C@@H](OC1OCCN(Cc2nc(=O)[nH][nH]2)C1c1ccc(F)cc1)c1cc(C(F)(F)F)cc(C(F)(F)F)c1 (stereo in doubt) [Aprepitant, 5-([(2R,3S)-2-((R)-1-[3,5-bis(trifluoromethyl)phenyl]ethoxy)-3-(4-fluorophenyl)morpholino]methyl)-1H-1,2,4-triazol-3(2H)-one]
concentration at 7 days (New Zealand White (albino), lung, right inferior lobe, po, 100 mg/kg/day, Lung concentration of aprepitant LIPD (right inferior lobe), Group 4, oral 100 mg/kg per day, seven days, individual cases): 4900 ng/g | concentration at 7 days (New Zealand White (albino), lung, right inferior lobe, po, 100 mg/kg/day, Lung concentration of aprepitant LIPD, Average ± SD of cases, Group 4, oral 100 mg/kg per day, seven days): 5600 ng/g | concentration at 7 days (New Zealand White (albino), lung, right middle lobe, inhaled, 0.05 mg/kg/day, Lung concentration of aprepitant LMPD (right middle lobe), Group 5, inhalation (aerosol, olive oil) 0.05 mg/kg per day, seven days, individual cases): 1500 ng/g | concentration at 7 days (New Zealand White (albino), lung, right middle lobe, inhaled, 0.05 mg/kg/day, Lung concentration of aprepitant LMPD, Average ± SD of cases, Group 5, inhalation (aerosol, olive oil) 0.05 mg/kg per day, seven days): 1500 ng/g | concentration at 7 days (New Zealand White (albino), lung, right middle lobe, inhaled, 0.1 mg/kg/day, Lung concentration of aprepitant LMPD (right middle lobe), Group 6, inhalation (aerosol, olive oil) 0.1 mg/kg per day, seven days, individual cases): 2900 ng/g | concentration at 7 days (New Zealand White (albino), lung, right middle lobe, inhaled, 0.1 mg/kg/day, Lung concentration of aprepitant LMPD, Average ± SD of cases, Group 6, inhalation (aerosol, olive oil) 0.1 mg/kg per day, seven days): 2900 ng/g | concentration at 7 days (New Zealand White (albino), lung, right middle lobe, inhaled, 0.2 mg/kg/day, Lung concentration of aprepitant LMPD (right middle lobe), Group 7, inhalation (aerosol, olive oil) 0.2 mg/kg per day, seven days, individual cases): 6000 ng/g | concentration at 7 days (New Zealand White (albino), lung, right middle lobe, inhaled, 0.2 mg/kg/day, Lung concentration of aprepitant LMPD, Average ± SD of cases, Group 7, inhalation (aerosol, olive oil) 0.2 mg/kg per day, seven days): 6030 ng/g | concentration at 7 days (New Zealand White (albino), lung, right middle lobe, po, 100 mg/kg/day, Lung concentration of aprepitant LMPD, Average ± SD of cases, Group 4, oral 100 mg/kg per day, seven days): 5400 ng/g | concentration at 7 days (New Zealand White (albino), lung, right superior lobe, inhaled, 0.05 mg/kg/day, Lung concentration of aprepitant LSPD (right superior lobe), Group 5, inhalation (aerosol, olive oil) 0.05 mg/kg per day, seven days, individual cases): 1400 ng/g | concentration at 7 days (New Zealand White (albino), lung, right superior lobe, inhaled, 0.05 mg/kg/day, Lung concentration of aprepitant LSPD, Average ± SD of cases, Group 5, inhalation (aerosol, olive oil) 0.05 mg/kg per day, seven days): 1400 ng/g | concentration at 7 days (New Zealand White (albino), lung, right superior lobe, inhaled, 0.1 mg/kg/day, Lung concentration of aprepitant LSPD (right superior lobe), Group 6, inhalation (aerosol, olive oil) 0.1 mg/kg per day, seven days, individual cases): 2900 ng/g | concentration at 7 days (New Zealand White (albino), lung, right superior lobe, inhaled, 0.1 mg/kg/day, Lung concentration of aprepitant LSPD, Average ± SD of cases, Group 6, inhalation (aerosol, olive oil) 0.1 mg/kg per day, seven days): 2800 ng/g | concentration at 7 days (New Zealand White (albino), lung, right superior lobe, inhaled, 0.2 mg/kg/day, Lung concentration of aprepitant LSPD (right superior lobe), Group 7, inhalation (aerosol, olive oil) 0.2 mg/kg per day, seven days, individual cases): 6100 ng/g | concentration at 7 days (New Zealand White (albino), lung, right superior lobe, inhaled, 0.2 mg/kg/day, Lung concentration of aprepitant LSPD, Average ± SD of cases, Group 7, inhalation (aerosol, olive oil) 0.2 mg/kg per day, seven days): 6000 ng/g | concentration at 7 days (New Zealand White (albino), lung, right superior lobe, po, 100 mg/kg/day, Lung concentration of aprepitant LSPD, Average ± SD of cases, Group 4, oral 100 mg/kg per day, seven days): 4700 ng/g | concentration at 7 days (New Zealand White, in vivo, 0.4 mg/kg/day, Lung concentration of aprepitant, Average ± SD of the five lobes per case): 9900 ng/g | concentration at 7 days (New Zealand White, in vivo, po, 10 mg/kg/day, Lung concentration of aprepitant, Average ± SD of the five lobes per case): 960 ng/g | concentration at 7 days (New Zealand White, in vivo, po, 40 mg/kg/day, Lung concentration of aprepitant, Average ± SD of the five lobes per case): 4200 ng/g | concentration at 7 days (New Zealand White, in vivo, po, 80 mg/kg/day, Lung concentration of aprepitant, Average ± SD of the five lobes per case): 4400 ng/g | concentration at 7 days (New Zealand White, lung, left inferior lobe, inhaled, 0.2 mg/kg/day, Lung concentration of aprepitant LIPI, Average ± SD of cases, Group 7, inhalation (aerosol, olive oil) 0.2 mg/kg per day, seven days): 5900 ng/g | concentration at 7 days (New Zealand White, lung, left inferior lobe, inhaled, 0.4 mg/kg/day, Lung concentration of aprepitant LIPI (left inferior lobe), Group 8, inhalation (aerosol, olive oil) 0.4 mg/kg per day, seven days, individual cases): 10000 ng/g | concentration at 7 days (New Zealand White, lung, left inferior lobe, inhaled, 0.4 mg/kg/day, Lung concentration of aprepitant LIPI, Average ± SD of cases, Group 8, inhalation (aerosol, olive oil) 0.4 mg/kg per day, seven days): 10000 ng/g | concentration at 7 days (New Zealand White, lung, left inferior lobe, po, 10 mg/kg/day, Lung concentration of aprepitant LIPI (left inferior lobe), Group 1, oral 10 mg/kg per day, seven days, individual cases): 1500 ng/g | concentration at 7 days (New Zealand White, lung, left inferior lobe, po, 10 mg/kg/day, Lung concentration of aprepitant LIPI, Average ± SD of cases, Group 1, oral 10 mg/kg per day, seven days): 1300 ng/g | concentration at 7 days (New Zealand White, lung, left inferior lobe, po, 40 mg/kg/day, Lung concentration of aprepitant LIPI (left inferior lobe), Group 2, oral 40 mg/kg per day, seven days, individual cases): 5400 ng/g | concentration at 7 days (New Zealand White, lung, left inferior lobe, po, 40 mg/kg/day, Lung concentration of aprepitant LIPI, Average ± SD of cases, Group 2, oral 40 mg/kg per day, seven days): 4000 ng/g | concentration at 7 days (New Zealand White, lung, left inferior lobe, po, 80 mg/kg/day, Lung concentration of aprepitant LIPI (left inferior lobe), Group 3, oral 80 mg/kg per day, seven days, individual cases): 3600 ng/g | concentration at 7 days (New Zealand White, lung, left inferior lobe, po, 80 mg/kg/day, Lung concentration of aprepitant LIPI, Average ± SD of cases, Group 3, oral 80 mg/kg per day, seven days): 3700 ng/g | concentration at 7 days (New Zealand White, lung, left superior lobe, inhaled, 0.2 mg/kg/day, Lung concentration of aprepitant LSPI, Average ± SD of cases, Group 7, inhalation (aerosol, olive oil) 0.2 mg/kg per day, seven days): 6030 ng/g | concentration at 7 days (New Zealand White, lung, left superior lobe, inhaled, 0.4 mg/kg/day, Lung concentration of aprepitant LSPI (left superior lobe), Group 8, inhalation (aerosol, olive oil) 0.4 mg/kg per day, seven days, individual cases): 9900 ng/g | concentration at 7 days (New Zealand White, lung, left superior lobe, inhaled, 0.4 mg/kg/day, Lung concentration of aprepitant LSPI, Average ± SD of cases, Group 8, inhalation (aerosol, olive oil) 0.4 mg/kg per day, seven days): 10000 ng/g
